Experimental data: patent US9238797B2, “Method for production of pluripotent stem cell” (TAKARA BIO INC., priority 2008, dated 2016)

What was measured:
Assay type in all cases: cell-based
[1] = system: human skin fibroblast; test: Gene transfer efficiency with two retrovirus vectors, AcGFP1/mStrawberry double positive cells by flow cytometer (Example 8); conditions: 3 days after gene transfer
Protocol: According to the same manner as that of Example 1-(1), immobilization of Retronectin on a culture plate was carried out, provided that a non-treatment 24-well culture plate (manufactured by Becton, Dickinson and Company) was used, and a Retronectin solution was added to each well by each 500 μL.
Gene transfer with Retronectin was carried out according to the same manner as that of Example 3-(2), provided that a retrovirus vector was a combination of DON-am-AcGFP1 and DONAI2-am-mStrawberry, and gene transfer was carried out by mixing each 250 μL of virus solutions. Further, a group of mixing 250 μL of a virus solution diluted 50-fold with 10F-DMEM was also set. In addition, a cell was suspended in a medium to 4×10^4 cells/mL, and each 500 μL was added to each well.
Gene transfer with polybrene was carried out in the same combination as that of retrovirus vectors according to the same manner as that of gene transfer with polybrene of Example 7-(2), provided that the cell was suspended in a medium to 4×10^4 cells/mL, and each 500 μL was added to each well of a 24-well culture plate (manufactured by Corning). […]
After 3 days from gene transfer operation, the cells were recovered, and AcGFP1 positive and mStrawberry positive cells were measured with a flow cytometer (CytomicsFC500, manufactured by Beckmann Coulter Inc.).

[2] = system: human skin fibroblast; test: Gene transfer efficiency with two retrovirus vectors, double positive cells (Example 9); conditions: 5 days after gene transfer
Protocol: According to the same manner as that of Example 8-(1), immobilization of Retronectin on a culture plate was carried out.
According to the same manner as that of Example 8-(2), gene transfer was carried out, provided that a group in which a virus solution is diluted 10-fold or 100-fold with 10F-DMEM was set.
According to the same manner as that of Example 8-(3), a gene transfer efficiency was measured, provided that measurement with a flow cytometer was carried out 5 days after gene transfer operation.

[3] = system: human skin fibroblast; test: AcGFP1 positive cell rate by flow cytometer (Example 19)
Protocol: As an index showing an existence rate of a cell in which each retrovirus vector together with a gene encoding a nuclear reprogramming factor (iPS cell inducing factor) was inserted, gene transfer of an AcGFP1 gene was carried out, and a pluripotent stem cell (iPS cell) induction efficiency and an AcGFP1 positive cell rate, in a gene transfer method with Retronectin (Retronectin method) and a gene transfer method with polybrene (polybrene method) were compared. In addition, regarding partial condition, quantitation of a copy number of a retrovirus vector inserted into a genome was carried out, and comparison of a copy number and a pluripotent stem cell (iPS cell) induction efficiency was carried out.
According to the same manner as that of Example 1-(1), immobilization of Retronectin on a culture plate was carried out, provided that, for a plate coated with Retronectin, a non-treatment 12-well plate was used, and each 1 mL of a Retronectin solution (25 μg/mL) was added to each well.
The virus solutions prepared in Preparation Example 2 and Preparation Example 3 were mixed at an equal amount in a combination of Table 24, the solution in which the virus solution was diluted 10-fold and 100-fold with 10F-DMEM was prepared regarding the condition A, and the solution in which the virus solution was diluted 10-fold was prepared regarding the condition B, and these were used in gene transfer. Gene transfer was carried out according to the same manner as that of Example 7-(2), provided that 1 mL of PSB was used for washing a plate with PBS in the Retronectin method, the cell number used in infection by the Retronectin method and the polybrene method was 4×10^4 cells/well, and a retrovirus vector solution was 1 mL/well.
According to the same manner as that of Example 10-(4), seeding of the gene-introduced cell on a feeder cell was carried out, provided that an AcGFP1 positive cell rate was measured with a flow cytometer using remaining cells which were not used in seeding on the feeder cell.

[4] = system: human adult skin fibroblasts; test: iPS cell colony induction, differences between donors, Retronectin or polybrene (Example 13); conditions: virus 10-fold dilution, 25th day of culture, N=2
Protocol: Regarding gene transfer with a retrovirus vector, a pluripotent stem cell was induced using Retronectin or polybrene, targeting four kinds of human adult skin fibroblasts as in Example 12, followed by comparison.
According to the same manner as that of Example 1-(1), immobilization of Retronectin on a culture plate was carried out, provided that a non-treatment 12-well culture plate (manufactured by Becton, Dickinson and Company) was used, and each 1 mL of a Retronectin solution was added to each well.
According to the same manner as that of Example 7-(2), gene transfer was carried out (day 0 of culturing), provided that a 12-well plate for culturing a cell (manufactured by Corning) was used in gene transfer with polybrene. A virus solution was added to each well by each 1 mL by diluting 10-fold a solution obtained by mixing equal amounts of three kinds of vectors, with 10F-DMEM.
On the sixth day of culture, according to the same manner as that of Example 5-(4), the gene-introduced cell was seeded on a feeder cell, and culturing was continued.
According to the same manner as that of Example 10-(5), culturing on the feeder cell was carried out until the 25th day of culture.
In addition, the number in the Table indicates an average value of N=2.

[5] = system: human adult skin fibroblast; test: iPS cell colony induction using a lentivirus vector, Retronectin or polybrene (Example 31); conditions: 32nd day of culture
Protocol: According to the same manner as that of Example 1-(1), immobilization of Retronectin on a culture plate was carried out, provided that, as a plate to be coated with Retronectin, a non-treatment 12-well plate was used, and each 1 mL of a Retronectin solution (25 μg/mL) was added to each well.
Each 500 μL of each mixed virus solution prepared in Preparation Example 5 was added to a 12-well Retronectin immobilization culture plate, or a 12-well culture plate, and each 500 μL of human adult skin fibroblast suspended in 10F-DMEM to 1×10^5 cells/mL was further added to each well. Regarding polybrene infection condition, polybrene was added to a final concentration of 8 μg/mL. […] (day 0 of culturing).
On the sixth day of culture, according to the same manner as that of Example 5-(4), the gene-introduced cell was seeded on a feeder cell, and culturing was continued. […] During this, the medium was exchanged at 2 days interval.
In addition, regarding the condition A, the results of only one well are shown.

## Retronectin: fragment of fibronectin having a heparin-II binding region (registered trademark, CH-296, TAKARA BIO INC.)
[1]; virus 50-fold dilution
  Ratio of double positive cells: 66.5%
[1]; virus solution undiluted
  Ratio of double positive cells: 40.7%
[2]; virus 10-fold dilution
  Ratio of both positive cells: 55.4
[2]; virus 100-fold dilution
  Ratio of both positive cells: 67.6
[2]; virus solution undiluted
  Ratio of both positive cells: 33.9
[3]; vector combination Condition A, virus 10-fold dilution
  AcGFP1 positive rate: 82.8%
[3]; vector combination Condition A, virus 100-fold dilution
  AcGFP1 positive rate: 94.1%
[3]; vector combination Condition B, virus 10-fold dilution
  AcGFP1 positive rate: 88%
[4]; Cell A
  Number of iPS cell colonies: 81.0
[4]; Cell B
  Number of iPS cell colonies: 6.5
[4]; Cell C
  Number of iPS cell colonies: 114.0
[4]; Cell D
  Number of iPS cell colonies: 44.5
[5]; 20-fold concentrated virus
  number of a pluripotent stem cell (iPS cell) colony, Well 1: 3
  number of a pluripotent stem cell (iPS cell) colony, Well 2: 2
[5]; virus without concentration
  number of a pluripotent stem cell (iPS cell) colony, Well 1: 5
